Laboratory results published in patent publication US20250074888A1, “PYRIDAZINE DERIVATIVES AS MODULATORS OF NLRP3 INFLAMMASOME AND RELATED METHODS” (Neumora Therapeutics, Inc., priority 2021, published 2025).
pIC50: −log10 of the molar value.

Assays:
[1] = tested on: IL-6; experiment: IL-6 release from LPS-primed, nigericin-treated THP1 macrophages, Hu IL-6 AlphaLISA; type: cell-based; conditions: Homo sapiens, THP-1; PMA-differentiated THP1, LPS 20 ng/ml 3 hrs, compound 1 hr, Nigericin 6.7 uM 3 hrs, supernatant
[2] = target: NLRP3 inflammasome (Homo sapiens, UniProt Q96P20); experiment: NLRP3 inflammasome activation in THP1 macrophages (LPS priming, nigericin), IL-1β AlphaLISA; type: cell-based; conditions: PMA-differentiated THP1, LPS 20 ng/ml 3 hrs, compound 1 hr, Nigericin 6.7 uM 3 hrs, supernatant
Sequence of NLRP3 inflammasome (Q96P20 whole entry): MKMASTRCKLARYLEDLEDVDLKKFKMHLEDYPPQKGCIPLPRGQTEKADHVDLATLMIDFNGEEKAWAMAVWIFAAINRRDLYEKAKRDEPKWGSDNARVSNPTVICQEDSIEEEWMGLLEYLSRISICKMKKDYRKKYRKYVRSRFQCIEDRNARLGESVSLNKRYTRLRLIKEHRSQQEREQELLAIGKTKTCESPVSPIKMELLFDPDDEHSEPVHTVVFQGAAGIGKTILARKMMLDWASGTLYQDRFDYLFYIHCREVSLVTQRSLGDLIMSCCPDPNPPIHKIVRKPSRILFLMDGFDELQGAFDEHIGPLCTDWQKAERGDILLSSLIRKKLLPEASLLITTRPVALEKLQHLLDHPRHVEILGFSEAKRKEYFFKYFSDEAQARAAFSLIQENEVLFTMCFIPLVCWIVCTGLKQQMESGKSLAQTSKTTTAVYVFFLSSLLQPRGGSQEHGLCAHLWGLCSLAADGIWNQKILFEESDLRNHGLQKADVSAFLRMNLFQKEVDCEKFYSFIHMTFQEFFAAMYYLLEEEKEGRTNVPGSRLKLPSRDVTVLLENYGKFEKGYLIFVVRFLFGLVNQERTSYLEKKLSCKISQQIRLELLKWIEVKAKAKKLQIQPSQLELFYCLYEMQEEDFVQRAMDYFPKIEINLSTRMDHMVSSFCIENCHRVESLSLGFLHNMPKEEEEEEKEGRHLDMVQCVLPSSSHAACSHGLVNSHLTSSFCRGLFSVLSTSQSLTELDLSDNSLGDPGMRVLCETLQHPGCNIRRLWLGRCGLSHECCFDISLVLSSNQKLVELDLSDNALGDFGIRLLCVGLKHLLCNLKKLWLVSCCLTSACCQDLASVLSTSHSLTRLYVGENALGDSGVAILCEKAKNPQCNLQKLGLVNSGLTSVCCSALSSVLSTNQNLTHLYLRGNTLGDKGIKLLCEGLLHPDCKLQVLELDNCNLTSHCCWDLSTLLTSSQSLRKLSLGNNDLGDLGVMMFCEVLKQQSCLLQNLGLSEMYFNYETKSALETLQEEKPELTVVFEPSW

SMILES	pIC50 [1]	pIC50 [2]
Cc1cc(N[C@@H]2CCCN(C(C)C)C2)nnc1-c1ccc(F)cc1 [compound 135]	< 5.00	7.30 to 8.00
Cc1cc(N[C@H]2CN(C)CC[C@@H]2F)nnc1-c1ccc(C(F)(F)F)cc1 [compound 136]	5.00 to 5.30	7.00 to 7.30
Cc1cc(N[C@@H]2C[C@H](F)CN(C)C2)nnc1-c1ccc(C(F)(F)F)cc1 [compound 137]	< 5.00	6.30 to 7.00
Cc1cc(N[C@H]2CN(C)CC[C@@H]2F)nnc1-c1ccc(F)cc1 [compound 138]	< 5.00	< 6.00
Cc1cc(N[C@@H]2C[C@H](F)CN(C)C2)nnc1-c1ccc(F)cc1 [compound 139]	5.00 to 5.30	6.00 to 6.30
Cc1cc(N[C@@H]2C[C@@H](F)CN(C)C2)nnc1-c1ccc(F)cc1 [compound 140]	< 5.00	< 6.00
Cc1cc(C(F)(F)F)c(C)cc1-c1ccc(N[C@@H]2CCCN(C)C2)nn1 [compound 141]	< 5.00	< 6.00
Cc1cc(N(C)[C@@H]2CCCN(C)C2)nnc1-c1ccc(C(F)(F)F)cc1 [compound 142, (R)—N,5-dimethyl-N-(1-methylpiperidin-3-yl)-6-(4-(trifluoromethyl)phenyl)pyridazin-3-amine]	5.30 to 6.00	6.30 to 7.00
CN1CCC[C@@H](Nc2cc(F)c(-c3ccc(C(F)(F)F)cc3)nn2)C1 [compound 143]	< 5.00	7.30 to 8.00
Cc1cc(N[C@@H]2C[C@@H](F)CN(C(C)C)C2)nnc1-c1ccc(C(F)(F)F)cc1 [compound 144]	5.00 to 5.30	6.30 to 7.00
Cc1cc(N[C@@H]2CCCN(C)C2)nnc1-c1ccc(Cl)c(F)c1 [compound 145]	< 5.00	7.00 to 7.30
CCN1C[C@H](F)C[C@@H](Nc2cc(C)c(-c3ccc(C(F)(F)F)cc3)nn2)C1 [compound 146]	5.00 to 5.30	≥ 8.00
Cc1cc(-c2ccc(Cl)c(F)c2)nnc1N[C@@H]1CCCN(C)C1 [compound 147]	5.00 to 5.30	< 6.00
CN1CCC[C@@H](Nc2nnc(-c3ccc(F)cc3)cc2C(F)(F)F)C1 [compound 148]	< 5.00	< 6.00
Cc1cc(-c2ccc(Cl)cc2F)nnc1N[C@@H]1CCCN(C)C1 [compound 149]	5.00 to 5.30	6.30 to 7.00
CCN1C[C@H](F)C[C@@H](Nc2cc(C)c(-c3ccc(F)cc3)nn2)C1 [compound 150]	< 5.00	< 6.00
CCN1C[C@H](F)C[C@@H](Nc2cc(C)c(-c3ccc(Cl)cc3)nn2)C1 [compound 151]	5.30 to 6.00	< 6.00
Cc1cc(N[C@@H]2C[C@@H](F)CN(C(C)C)C2)nnc1-c1ccc(Cl)cc1 [compound 152]	< 5.00	7.30 to 8.00
Cc1cc(N[C@@H]2CCCN(C)C2)nnc1-c1ccc(Cl)cc1F [compound 153]	5.00 to 5.30	< 6.00

SMILES	pIC50 [1]	pIC50 [2]
Cc1cc(F)ccc1-c1cc(F)c(N[C@@H]2CCCN(C)C2)nn1 [compound 154]	< 5.00	6.30 to 7.00
CCN1CCC[C@@H](Nc2cc(C)c(-c3ccc(Cl)cc3)nn2)C1 [compound 155]	< 5.00	≥ 8.00
Cc1cc(N[C@@H]2CCCN(C(C)C)C2)nnc1-c1ccc(Cl)cc1 [compound 156]	< 5.00	≥ 8.00
Cc1cc(N[C@@H]2CCCN(C)C2)nnc1-c1ccc(C(F)F)cc1 [compound 157]	< 5.00	7.30 to 8.00
Cc1cc(C(F)(F)F)ccc1-c1cc(O)c(N[C@@H]2CCCN(C)C2)nn1 [compound 158]	5.00 to 5.30	6.30 to 7.00
Cc1cc(N[C@@H]2CCCN(C)C2)nnc1-c1ccccc1C(F)F [compound 159]	5.00 to 5.30	6.00 to 6.30
Cc1cc(-c2ccccc2C(F)F)nnc1N[C@@H]1CCCN(C)C1 [compound 160]	5.30 to 6.00	6.00 to 6.30
Cc1c(-c2ccc(N[C@@H]3CCCN(C)C3)nn2)ccc(C(F)(F)F)c1C [compound 161]	< 5.00	6.30 to 7.00
Cc1cc(-c2nnc(N[C@@H]3CCCN(C)C3)cc2C)ccc1Cl [compound 162]	< 5.00	7.30 to 8.00
Cc1cc(-c2cc(C)c(N[C@@H]3CCCN(C)C3)nn2)ccc1Cl [compound 163]	< 5.00	< 6.00
COc1cc(F)cc(C)c1-c1ccc(N[C@@H]2CCCN(C)C2)nn1 [compound 164]	< 5.00	< 6.00
Cc1cc(N[C@@H]2CCCN(C)C2)nnc1-c1ccc(C(F)(F)F)cc1C(F)F [compound 165]	< 5.00	≥ 8.00
Cc1cc(-c2ccc(C(F)(F)F)cc2C(F)F)nnc1N[C@@H]1CCCN(C)C1 [compound 166]	< 5.00	7.30 to 8.00
CCN(c1cc(C)c(-c2ccc(C(F)(F)F)cc2)nn1)[C@@H]1CCCN(C)C1 [compound 167]	< 5.00	6.30 to 7.00
Cc1cc(N[C@@H]2CCCN(C)C2)nnc1-c1ccc(Cl)cc1C#N [compound 168]	5.00 to 5.30	7.30 to 8.00
Cc1cc(N[C@@H]2CCCN(C)C2)nnc1-c1ccc(Cl)cc1C(F)(F)F [compound 169]	< 5.00	7.30 to 8.00
Cc1cc(-c2ccc(Cl)cc2C(F)(F)F)nnc1N[C@@H]1CCCN(C)C1 [compound 170]	< 5.00	7.30 to 8.00
Cc1cc(N[C@@H]2CCCN(C)C2)nnc1-c1ccc(Cl)cc1Cl [compound 171]	< 5.00	≥ 8.00
COc1cc(N[C@@H]2CCCN(C)C2)nnc1-c1ccc(C(F)(F)F)cc1C [compound 172]	< 5.00	< 6.00

SMILES	pIC50 [1]	pIC50 [2]
Cc1cc(-c2ccc(Cl)cc2C#N)nnc1N[C@@H]1CCCN(C)C1 [compound 173]	< 5.00	< 6.00
Cc1cc(N[C@@H]2CCCN(C)C2)nnc1-c1ccc(Cl)cc1C(F)F [compound 174]	5.00 to 5.30	≥ 8.00
Cc1cc(-c2ccc(Cl)cc2C(F)F)nnc1N[C@@H]1CCCN(C)C1 [compound 175]	< 5.00	≥ 8.00
Cc1cc(N[C@@H]2CCCCN(C)C2)nnc1-c1ccc(C(F)(F)F)cc1 [compound 176]	< 5.00	7.00 to 7.30
Cc1cc(O[C@@H]2CCCN(C)C2)nnc1-c1ccc(C(F)(F)F)cc1 [compound 177, (R)-4-methyl-6-((1-methylpiperidin-3-yl)oxy)-3-(4-(trifluoromethyl)phenyl)pyridazine]	< 5.00	6.30 to 7.00
Cc1cc(-c2ccc(C(F)(F)F)cc2)nnc1O[C@@H]1CCCN(C)C1 [compound 178]	5.30 to 6.00	< 6.00
Cc1cc(O[C@@H]2CCCN(C)C2)nnc1-c1ccc(F)cc1 [compound 179]	< 5.00	< 6.00
Cc1cc(-c2ccc(F)cc2)nnc1O[C@@H]1CCCN(C)C1 [compound 180]	< 5.00	< 6.00
Cc1cc(Cl)ccc1-c1nnc(O[C@@H]2CCCN(C)C2)cc1C [compound 181]	≥ 6.00	6.00 to 6.30
Cc1cc(-c2ccc(C(F)(F)F)cc2)nnc1N[C@@H]1CCN(C)C1 [compound 182]	< 5.00	7.00 to 7.30
Cc1cc(N[C@@H]2CCN(C)C2)nnc1-c1ccc(F)cc1 [compound 183]	< 5.00	6.30 to 7.00
Cc1cc(N(C)[C@@H]2CCN(C)C2)nnc1-c1ccc(F)cc1 [compound 184]	5.00 to 5.30	< 6.00
Cc1cc(N(C)[C@@H]2CCN(C)C2)nnc1-c1ccc(C(F)(F)F)cc1 [compound 185]	5.30 to 6.00	< 6.00
Cc1cc(N[C@@H]2CCN(C)C2)nnc1-c1ccc(C(F)(F)F)cc1 [compound 186]	< 5.00	≥ 8.00
Cc1cc(Cl)ccc1-c1nnc(N[C@@H]2CCN(C)C2)cc1C [compound 187]	< 5.00	< 6.00
Cc1cccc(C(F)F)c1-c1ccc(N[C@@H]2CCCN(C)C2)nn1 [compound 189]	< 5.00	< 6.00
Cc1cc(N[C@@H]2C[C@@H](F)CN(C(C)C)C2)nnc1-c1ccc(F)cc1 [compound 190]	< 5.00	7.00 to 7.30
Cc1c(-c2ccc(C(F)(F)F)cc2)nnc(N[C@@H]2CCCN(C)C2)c1O [compound 191]	< 5.00	7.30 to 8.00
CN1CCC[C@@H](Nc2cc(C(F)(F)F)c(-c3ccc(F)cc3)nn2)C1 [compound 192]	< 5.00	≥ 8.00
